Measured values: ChEMBL document CHEMBL1629553, “Antimalarial activity of a new stilbene glycoside from Parthenocissus tricuspidata in mice” (Antimicrob Agents Chemother, 2008)
Active and inactive are the calls of the source. No cut-off for these calls is given here.

How the values were obtained:
[1] = test system: Plasmodium berghei; assay: Antimalarial activity against chloroquine-sensitive Plasmodium berghei ATCC 50175 infected in ICR mouse assessed as parasitemia at 5 mg/kg/day, po administered 24 hrs post-treatment measured after 4 days (reference value: 56.3+/-0.16 %); assay type: functional
[2] = test system: Plasmodium berghei; assay: Antimalarial activity against chloroquine-sensitive Plasmodium berghei ATCC 50175 infected in ICR mouse assessed as chemosuppression of parasitemia at 5 mg/kg/day, po administered 24 hrs post-treatment measured after 4 days; assay type: functional
[3] = test system: Plasmodium berghei; assay: Antimalarial activity against chloroquine-sensitive Plasmodium berghei ATCC 50175 infected ICR mouse assessed as survival of mouse at 5 mg/kg/day, po for 4 days measured after 30 days; assay type: functional, organism-based
[4] = test system: Plasmodium berghei; assay: Antimalarial activity against chloroquine-sensitive Plasmodium berghei ATCC 50175 infected ICR mouse assessed as survival of mouse at 5 mg/kg/day, po for 4 days measured after 25 days; assay type: functional, organism-based
[5] = test system: Plasmodium berghei; assay: Antimalarial activity against chloroquine-sensitive Plasmodium berghei ATCC 50175 infected ICR mouse assessed as survival of mouse at 10 mg/kg/day, po for 4 days measured after 27 days; assay type: functional, organism-based
[6] = test system: Plasmodium berghei; assay: Antimalarial activity against chloroquine-sensitive Plasmodium berghei ATCC 50175 infected ICR mouse assessed as survival of mouse at 25 mg/kg/day, po for 4 days measured after 30 days; assay type: functional, organism-based
[7] = test system: Plasmodium berghei; assay: Antimalarial activity against chloroquine-sensitive Plasmodium berghei ATCC 50175 infected in ICR mouse assessed as parasitemia at 1.2 mg/kg/day, po pretreated for 4 days before infection and measured after 72 hrs (reference value: 4.6+/-0.21 %); assay type: functional
[8] = test system: Plasmodium berghei; assay: Antimalarial activity against chloroquine-sensitive Plasmodium berghei ATCC 50175 infected in ICR mouse assessed as chemosuppression of parasitemia at 1.2 mg/kg/day, po pretreated for 4 days before infection and measured after 72 hrs; assay type: functional
[9] = test system: Plasmodium berghei; assay: Antimalarial activity against chloroquine-sensitive Plasmodium berghei ATCC 50175 infected in ICR mouse assessed as parasitemia at 10 mg/kg/day, po administered 24 hrs post-treatment measured after 4 days (reference value: 56.3+/-0.16 %); assay type: functional
[10] = test system: Plasmodium berghei; assay: Antimalarial activity against chloroquine-sensitive Plasmodium berghei ATCC 50175 infected in ICR mouse assessed as parasitemia at 25 mg/kg/day, po administered 24 hrs post-treatment measured after 4 days (reference value: 56.3+/-0.16 %); assay type: functional
[11] = test system: Plasmodium berghei; assay: Antimalarial activity against chloroquine-sensitive Plasmodium berghei ATCC 50175 infected in ICR mouse assessed as chemosuppression of parasitemia at 10 mg/kg/day, po administered 24 hrs post-treatment measured after 4 days; assay type: functional
[12] = test system: Plasmodium berghei; assay: Antimalarial activity against chloroquine-sensitive Plasmodium berghei ATCC 50175 infected in ICR mouse assessed as chemosuppression of parasitemia at 25 mg/kg/day, po administered 24 hrs post-treatment measured after 4 days; assay type: functional
[13] = test system: Plasmodium berghei; assay: Antimalarial activity against chloroquine-sensitive Plasmodium berghei ATCC 50175 infected in ICR mouse assessed as parasitemia at 5 mg/kg/day, po pretreated for 4 days before infection and measured after 72 hrs (reference value: 4.6+/-0.21 %); assay type: functional
[14] = test system: Plasmodium berghei; assay: Antimalarial activity against chloroquine-sensitive Plasmodium berghei ATCC 50175 infected in ICR mouse assessed as parasitemia at 10 mg/kg/day, po pretreated for 4 days before infection and measured after 72 hrs (reference value: 4.6+/-0.21 %); assay type: functional
[15] = test system: Plasmodium berghei; assay: Antimalarial activity against chloroquine-sensitive Plasmodium berghei ATCC 50175 infected in ICR mouse assessed as parasitemia at 25 mg/kg/day, po pretreated for 4 days before infection and measured after 72 hrs (reference value: 4.6+/-0.21 %); assay type: functional
[16] = test system: Plasmodium berghei; assay: Antimalarial activity against chloroquine-sensitive Plasmodium berghei ATCC 50175 infected in ICR mouse assessed as chemosuppression of parasitemia at 5 mg/kg/day, po pretreated for 4 days before infection and measured after 72 hrs; assay type: functional
[17] = test system: Plasmodium berghei; assay: Antimalarial activity against chloroquine-sensitive Plasmodium berghei ATCC 50175 infected in ICR mouse assessed as chemosuppression of parasitemia at 10 mg/kg/day, po pretreated for 4 days before infection and measured after 72 hrs; assay type: functional
[18] = test system: Plasmodium berghei; assay: Antimalarial activity against chloroquine-sensitive Plasmodium berghei ATCC 50175 infected in ICR mouse assessed as chemosuppression of parasitemia at 25 mg/kg/day, po pretreated for 4 days before infection and measured after 72 hrs; assay type: functional
[19] = test system: Mus musculus; assay: Toxicity against chloroquine-sensitive Plasmodium berghei ATCC 50175 infected ICR mouse at 5 to 25 mg/kg, po; assay type: organism-based; set-up: dose 5-25 mg/kg, route oral; conditions: in vivo
[20] = test system: Plasmodium berghei; assay: Antimalarial activity against chloroquine-sensitive Plasmodium berghei ATCC 50175 infected in ICR mouse assessed as reduced parasitemia at 5 mg/kg/day, po administered 24 hrs post-treatment measured on day 3; assay type: functional; set-up: scale not given: the % may be the effect or the level left
[21] = test system: Plasmodium berghei; assay: Antimalarial activity against chloroquine-sensitive Plasmodium berghei ATCC 50175 infected in ICR mouse assessed as reduced parasitemia at 10 mg/kg/day, po administered 24 hrs post-treatment measured on day 3; assay type: functional; set-up: scale not given: the % may be the effect or the level left
[22] = test system: Plasmodium berghei; assay: Antimalarial activity against chloroquine-sensitive Plasmodium berghei ATCC 50175 infected in ICR mouse assessed as reduced parasitemia at 25 mg/kg/day, po administered 24 hrs post-treatment measured on day 3; assay type: functional; set-up: scale not given: the % may be the effect or the level left
[23] = test system: Plasmodium berghei; assay: Antimalarial activity against chloroquine-sensitive Plasmodium berghei ATCC 50175 infected in ICR mouse assessed as reduced parasitemia at 5 mg/kg/day, po administered 24 hrs post-treatment for 4 day measured on day 7; assay type: functional; set-up: scale not given: the % may be the effect or the level left
[24] = test system: Plasmodium berghei; assay: Antimalarial activity against chloroquine-sensitive Plasmodium berghei ATCC 50175 infected in ICR mouse assessed as reduced parasitemia at 10 mg/kg/day, po administered 24 hrs post-treatment for 4 day measured on day 7; assay type: functional; set-up: scale not given: the % may be the effect or the level left
[25] = test system: Plasmodium berghei; assay: Antimalarial activity against chloroquine-sensitive Plasmodium berghei ATCC 50175 infected in ICR mouse assessed as reduced parasitemia at 25 mg/kg/day, po administered 24 hrs post-treatment for 4 day measured on day 7; assay type: functional; set-up: scale not given: the % may be the effect or the level left
[26] = test system: Plasmodium berghei; assay: Antimalarial activity against chloroquine-sensitive Plasmodium berghei ATCC 50175 infected ICR mouse assessed as increase in mouse survival at 5 to 25 mg/kg/day, po administered 24 hrs post-treatment; assay type: functional

For `CCN(CC)CCCC(C)Nc1ccnc2cc(Cl)ccc12` (stereo not drawn) [CHLOROQUINE], the Activity [1] was 6.2%, the Activity [2] was 89.3% and the Activity [3] was “Active”. For the same compound, the Activity [4] was “Active”, the Activity [5] was “Active” and the Activity [6] was “Active”.
For `CCc1nc(N)nc(N)c1-c1ccc(Cl)cc1` [PYRIMETHAMINE], the Activity [7] was 4.6% and the Activity [8] was 91.8%.
`OC[C@H]1O[C@@H](OC[C@@H]2O[C@H](Oc3cc(O)cc(/C=C/c4ccc(O)cc4)c3)[C@@H](O)[C@H](O)[C@H]2O)[C@H](O)[C@@H](O)[C@@H]1O` was tested, and the Activity [1] was 31.3%, the Activity [9] was 22.4% and the Activity [10] was 15.2%. The Activity [2] was 44.3%, the Activity [11] was 60.2% and the Activity [12] was 73.2%. It also gave an Activity [13] of 23.2%, an Activity [14] of 16.5% and an Activity [15] of 11.3%. For the same compound, the Activity [16] was 58.7%, the Activity [17] was 70.6% and the Activity [18] was 80.1%. The Activity [19] was “Non-toxic”, the Activity [20] was 6.25% and the Activity [21] was 18.75%. For the same compound, the Activity [22] was 34.37%, the Activity [23] was 73.6% and the Activity [24] was 86.3%. For the same compound, the Activity [25] was 89.4% and the Time [26] was 96 h.
